According to patent publication US20110183978A1, “Phenylpyri(mi)dinylazoles” (Bayer CropScience AG, priority 2009, published 2011):
Where two headings read alike, the source gives them in different places.

Tests used:
[1] = test system: Mycosphaerella graminicola; experiment: Example G: in vivo test on Mycosphaerella graminicola (wheat leaf blotch disease); settings: Zymoseptoria tritici, wheat plants sprayed 24 hours before inoculation, scored after 21 to 28 days, read-out: % Wirkungsgrad
Method: In Vivo Test on Mycosphaerella Graminicola (Wheat Leaf Blotch Disease) An aqueous suspension of the active substance was prepared by homogenization of a mixture of acetone/Tween/dimethyl sulphoxide and subsequent dilution with water to the desired concentration. Wheat plants (variety: Scipion) are sown in cultivation dishes on a peat-pozzolanic earth substrate (50/50) at 12° C. and sprayed at the first-leaf stage (10 cm size) with the aqueous suspension described above. As a control, plants are sprayed with an aqueous solution with no active substance. After 24 hours the plants are inoculated by spraying with an aqueous suspension of Mycosphaerella graminicola spores (500,000 spores per ml). The spores are derived from a 7 day-old culture. […] After 21 to 28 days they are scored in comparison with the control plants.

[2] = physchem
[3] = test system: Sphaerotheca fuliginea; experiment: Example D: in vivo test on Sphaerotheca fuliginea (powdery mildew on cucumber); settings: Podosphaera fuliginea, 288 h, cucumber plants sprayed 24 hours before inoculation, scored after 12 days, read-out: % Wirkungsgrad
Method: In Vivo Test on Sphaerotheca Fuliginea (Powdery Mildew on Cucumber) An aqueous suspension of the active substance was prepared by homogenization of a mixture of acetone/Tween/dimethyl sulphoxide and subsequent dilution with water to the desired concentration. Cucumber plants (variety: Vert petit de Paris) are sown in cultivation dishes on a peat-pozzolanic earth substrate (50/50) at 20/23° C. and at the cotyledon stage Z10 sprayed with the aqueous suspension described above. As a control, plants are sprayed with an aqueous solution with no active substance. After 24 hours the plants are inoculated by spraying with an aqueous suspension of Sphaerotheca fuliginea spores (100,000 spores per ml). The spores are derived from a contaminated plant. The inoculated cucumber plants are incubated at ca. 20/25° C. at a relative atmospheric humidity of 60/70%. After 12 days they are scored in comparison with the control plants.

[4] = test system: Fusarium proliferatum; experiment: Example I: production of fumonisin FB1 by Fusarium proliferatum (microtitre plates); format: cell-based; settings: 120 h
[5] = test system: Fusarium nivale (var. majus); experiment: whole plant or invertebrate; format: in vivo; settings: Microdochium nivale, in Triticum aestivum, 120 h, read-out: % Wirkungsgrad (activity level)
[6] = test system: Plasmopara viticola; experiment: Example N: in vivo test on Plasmopara viticola (downy mildew, vine/protective); settings: 144 h, vine, protective, assessment 6 days after inoculation, read-out: % Wirkungsgrad
Method: (§1) Emulsifier: 1 part by weight alkylaryl polyglycol ethers For the preparation of a suitable active substance preparation, 1 part by weight of active substance is mixed with the stated quantities of solvent and emulsifier and the concentrate is diluted to the desired concentration with water. For the testing for protective activity, young plants are sprayed with the active substance preparation at the stated application dosage. […] The plants are then moistened and placed in an incubation cabin for 1 day. 6 days after the inoculation, the assessment takes place.

[7] = test system: Sphaerotheca fuliginea; experiment: Example L: in vivo test on Sphaerotheca fuliginea (powdery mildew on cucumber/protective); settings: Podosphaera fuliginea, 168 h, cucumber, protective, assessment 7 days after inoculation, read-out: % Wirkungsgrad
Method in brief: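 Young cucumber plants sprayed at stated dosage with compound in DMF/alkylaryl polyglycol ether emulsifier diluted in water; inoculated with S. fuliginea spores one day later. Kept in greenhouse at 70% relative humidity, 23° C; protective activity assessed 7 days after inoculation.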

[8] = test system: Venturia inaequalis; experiment: Example O: in vivo test on Venturia inaequalis (apple scab/protective); settings: 240 h, protective, assessment 10 days after inoculation, read-out: % Wirkungsgrad
Method: as §1, with “10” for “The plants are then moistened and placed in an incubation cabin for 1 day. 6”

[9] = test system: Botrytis cinerea; experiment: Example P: in vivo test on Botrytis cinerea (gray mould on bean/protective); settings: 48 h, bean, protective, 250 ppm active substance, assessed 2 days after inoculation, read-out: % Wirkungsgrad (activity level)
Method: as §1, with “dosage. After drying of the spray coating, 2 small pieces of agar with Botrytis cinerea growing on them are laid on every leaf.” for “dosage.”, “2” for “The plants are then moistened and placed in an incubation cabin for 1 day. 6”, “size of the infection blotches on the leaves is assessed.” for “assessment takes place.”

[10] = test system: Alternaria solani; experiment: Example M: in vivo test on Alternaria solani (leaf blotch disease/tomato/protective); settings: 168 h, tomato, protective, 500 ppm active substance, assessed 7 days after inoculation, read-out: % Wirkungsgrad (activity level)
Method in brief: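 Alternaria solani infection on tomato scored 7 days post-inoculation. Before inoculation, young plants received a protective spray at the stated application dose; formulation was compound mixed with N,N-dimethylformamide and emulsifier, water-diluted.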

[11] = test system: Septoria tritici; experiment: Example R: in vivo test on Septoria tritici (leaf blotch in wheat/protective); settings: Zymoseptoria tritici, 504 h, wheat, protective, 1000 ppm active substance, assessed 21 days after inoculation, read-out: % Wirkungsgrad (activity level)
Method: Solvent: 49 parts by weight N,N-dimethylacetamide Emulsifier: 1 part by weight alkylaryl polyglycol ethers For the preparation of a suitable active substance preparation, 1 part by weight of active substance is mixed with the stated quantities of solvent and emulsifier and the concentrate is diluted to the desired concentration with water. For the testing for protective activity, young plants are sprayed with the active substance preparation at the stated application dosage. After drying of the spray coating, the plants are sprayed with a spore suspension of Septoria tritici. […] 21 days after the inoculation, the assessment takes place.

[12] = test system: Peronospora parasitica; experiment: Example A: in vivo test on Peronospora parasitica (downy mildew on white cabbage); settings: Hyaloperonospora parasitica, 120 h, cabbage plants sprayed 24 hours before inoculation, scored after 5 days, read-out: % Wirkungsgrad
Method: In Vivo Test on Peronospora Parasitica (Downy Mildew on White Cabbage) An aqueous suspension of the active substance was prepared by homogenization of a mixture of acetone/Tween (dispersant)/dimethyl sulphoxide (DMSO) and subsequent dilution with water to the desired concentration. Cabbage plants (variety: Eminence) are sown in cultivation dishes on a peat-pozzolanic earth substrate (50/50) at 18-20° C. and sprayed at the cotyledon stage with the aqueous suspension described above. As a control, plants are sprayed with an aqueous solution with no active substance. After 24 hours, the plants are inoculated by spraying with an aqueous suspension of Peronospora parasitica spores (50,000 spores per ml). The spores are derived from infected plants. The inoculated cabbage plants are incubated for 5 days at ca. 20° C. in a moist atmosphere. After 5 days, they are scored in comparison with the control plants.

[13] = test system: Fusarium graminearum; experiment: microbe, parasite or virus in culture; format: cell-based
[14] = test system: Fusarium graminearum; experiment: whole plant or invertebrate; format: in vivo; settings: in Hordeum vulgare, 120 h, read-out: % Wirkungsgrad (activity level)
[15] = LogPA (logP of the stated pure compound or, in a mixture, of the main isomer, 1-substituted 3-aryl-1H-pyrazole)
[16] = Fusarium proliferatum growth, OD 620, 5 days, read-out: % Inhibition des Pilzwachstums bei 50 μM
[17] = Fusarium proliferatum, 5 days at 20° C., HPLC-MS/MS, read-out: % Inhibition der FB1 produktion bei 50 μM
[18] = 72 h, read-out: % Inhibition des Pilzwachstums bei 50 μM
[19] = 168 h, read-out: % Inhibition der DON/AcDON produktion bei 50 μM

Row | Structure (SMILES) | pest or weed control at 500 ppm [1] [%] | chromatographic logP [2, 15] | pest or weed control at 500 ppm [3] [%] | pest or weed control at 1000 ppm [5] [%] | pest or weed control at 500 ppm [7] [%] | pest or weed control at 100 ppm [8] [%] | pest or weed control at 250 ppm [9] [%] | pest or weed control at 500 ppm [10] [%] | pest or weed control at 1000 ppm [14] [%] | other results
1 | CNC(=O)c1cc(-c2cn(C(C)C)nc2-c2ccc(F)cc2)ccn1 [Compound 53] | 91 | 2.74 | 98 |  |  |  |  |  |  | inhibition at 50 µM [4, 16]: 0%; inhibition at 50 µM [4, 17]: 96%
2 | Fc1cccc(F)c1-c1nn(CC(F)(F)F)cc1-c1ccncc1 [Compound 12] | 77 | 1.39 | 95 |  |  |  |  |  |  | 
3 | O=C(Nc1cc(-c2cn(CC(F)F)nc2-c2ccc(F)cc2)ccn1)C1CCC1 [Compound 240] |  |  |  | 75 | 96 | 96 | 99 | 88 |  | pest or weed control at 100 ppm [6]: 90%; chromatographic logP ([2]; LogPA): 2.42; pest or weed control at 1000 ppm [11]: 75%
4 | CC(C)(C)Cn1ncc(-c2ccncc2)c1-c1c(F)cccc1F [Compound 6] | 85 | 1.79 | 95 |  |  |  |  |  |  | pest or weed control at 500 ppm [12]: 70%
5 | C#CCn1ccc2c(-c3cn(C(C)C)nc3-c3ccc(F)cc3)ccnc21 [Compound 47] | 77 | 3.63 |  |  |  |  |  |  |  | inhibition at 50 µM [4, 16]: 0%; inhibition at 50 µM [4, 17]: 98%
6 | CCC(C)n1cc(-c2ccnc(NC(=O)CC3CC3)c2)c(-c2ccc(F)cc2)n1 (stereo not drawn) [Compound 159] |  | 3 |  | 75 | 97 | 97 | 98 | 94 | 100 | inhibition at 50 µM [13, 18]: 102%; inhibition at 50 µM [13, 19]: 99%; pest or weed control at 1000 ppm [11]: 100%
7 | CCOC(=O)CCn1cc(-c2ccncc2)c(-c2ccc(F)cc2)n1 [Compound 132] | 86 | 1.29 | 82 |  |  |  |  |  |  | 
8 | CC(=O)n1ccc2c(-c3cn(C4CCCCO4)nc3-c3ccc(F)cc3)ccnc21 (stereo not drawn) [Compound 81] | 97 | 3.85 | 77 |  |  |  |  | 95 |  | pest or weed control at 500 ppm [12]: 89%
9 | CC(C)n1ncc(-c2ccnc(NC(=O)C(C)(C)C)c2)c1-c1ccc(F)cc1 [Compound 72] | 83 | 2.99 |  |  |  |  |  | 95 |  | 
10 | Fc1cccc(F)c1-c1nn(CC2CCCO2)cc1-c1ccncc1 (stereo not drawn) [Compound 26] | 88 | 1.16 | 80 |  |  |  |  |  |  | 
11 | O=C(CC1CC1)Nc1cc(-c2cn(CC3CC3(Cl)Cl)nc2-c2ccc(F)cc2)ccn1 (stereo not drawn) [Compound 251] |  |  |  |  | 96 | 84 | 95 | 94 | 83 | chromatographic logP ([2]; LogPA): 3.3
12 | Fc1cccc(F)c1-c1c(-c2ccncc2)cnn1C1CCC1 [Compound 15] | 97 | 1.49 | 87 |  | 95 |  |  | 95 |  | pest or weed control at 500 ppm [12]: 75%
13 | Fc1cccc(F)c1-c1c(-c2ccncc2)cnn1CC1CCCO1 (stereo not drawn) [Compound 27] | 97 | 1.21 | 73 |  |  |  |  |  |  | 
14 | CC(C)CC(=O)Nc1cc(-c2cn(CC(F)F)nc2-c2ccc(F)cc2)ccn1 [Compound 238] |  |  |  | 75 | 100 | 98 | 93 | 94 | 92 | pest or weed control at 100 ppm [6]: 88%; chromatographic logP ([2]; LogPA): 2.63
15 | CCC(C)n1cc(-c2ccnc(NC(=O)C(C)C)c2)c(-c2ccc(F)cc2)n1 (stereo not drawn) [Compound 157] |  | 2.82 |  | 88 | 100 | 94 | 78 | 94 | 100 | inhibition at 50 µM [13, 18]: 100%; inhibition at 50 µM [13, 19]: 100%; pest or weed control at 1000 ppm [11]: 100%
16 | O=C(Nc1cc(-c2cn(CC3CC3)nc2-c2ccc(F)cc2)ccn1)C1CC1 [Compound 224] |  |  |  | 100 | 99 | 71 | 99 | 70 | 100 | chromatographic logP ([2]; LogPA): 2.29; inhibition at 50 µM [13, 18]: 100%; inhibition at 50 µM [13, 19]: 92%; pest or weed control at 1000 ppm [11]: 100%; inhibition at 50 µM [4, 16]: 99%; inhibition at 50 µM [4, 17]: 100%
